Experimental data as given in patent publication US8748339B2, “Synergistic fungicidal mixtures” (priority 2008, dated 2014).
Read-outs that look alike come from different tables or passages of the source.

Legend:
Assay type in all cases: cell-based
Pyrenophora teres = experiment: Activity against Pyrenophora teres in the microtiter test (Pyrnte); conditions: single active compound, day 7 after inoculation
Septoria tritici = experiment: Activity against leaf blotch on wheat caused by Septoria tritici in the microtiter test (Septtr); conditions: single active compound, day 7 after inoculation
Fusarium culmorum = experiment: Activity against Fusarium culmorum in the microtiter test (Fusacu); conditions: single active compound, day 7 after inoculation
Phytophthora infestans = conditions: single active compound, 7 days after inoculation

COC=C(C(=O)OC)c1ccccc1COc1cccc(C(F)(F)F)n1 [Picoxystrobin, methyl 3-methoxy-2-[2-(6-trifluoromethylpyridin-2-yloxymethyl)phenyl]-acrylate]
Observed efficacy [%] (Pyrenophora teres; 0.016 ppm): 31%

Cc1cc(C2CC2)nc(Nc2ccccc2)n1 [Cyprodinil, (4-cyclopropyl-6-methylpyrimidin-2-yl)phenylamine]
Observed efficacy [%] (Septoria tritici; 1 ppm): 13%

COC(=O)N(OC)c1ccccc1COc1ccn(-c2ccc(Cl)cc2)n1 [Pyraclostrobin, methyl N-{2-[1-(4-chlorophenyl)-1H-pyrazol-3-yloxymethyl]phenyl}(N-methoxy)carbamate]
Observed efficacy [%] (Fusarium culmorum; 0.25 ppm): 5%

C=CCSC(=O)n1c(N)c(-c2ccccc2C)c(=O)n1C(C)C [I.1, 5-amino-2-isopropyl-3-oxo-4-o-tolyl-2,3-dihydro-pyrazole-1-carbothioic acid ally ester]
Observed efficacy [%] (Phytophthora infestans; 16 ppm): 16%
Observed efficacy [%] (Phytophthora infestans; 63 ppm): 37%
Observed efficacy [%] (Septoria tritici; 4 ppm): 37%
Observed efficacy [%] (Pyrenophora teres; 1 ppm): 34%
Observed efficacy [%] (Fusarium culmorum; 63 ppm): 14%

N#Cc1c(Cl)c(Cl)c(Cl)c(C#N)c1Cl [Chlorothalonil, 2,4,5,6-tetrachloroisophthalonitrile]
Observed efficacy [%] (Septoria tritici; 0.25 ppm): 46%

CCO[PH](=O)O [Fosetyl-Al]
Observed efficacy [%] (Phytophthora infestans; 16 ppm): 35%

zinc propylenebis(dithiocarbamate) polymer [Propineb]
Observed efficacy [%] (Phytophthora infestans; 1 ppm): 21%
